Assay results as given in patent publication US10538564B2, “Peptides having osteoblast growth-promoting activity and use thereof” (PHARMA FOODS INTERNATIONAL CO., LTD., priority 2014, dated 2020).
No end group written: not given here.

Experiments:
[1] = system: mature female rats (eight months old); assay: Bone formation-promoting effect in mature rats; assay type: in vivo, rat; settings: No. 1 oral 1, 10 or 100 mg/kg·day, alendronate 300 μg/kg subcutaneous, 20 weeks, vs control group
Description: Synthetic peptide No. 1 was administered to mature female rats (eight months old, ten rats in each group) by oral gavage using a gastric tube once a day for 20 weeks. The dose of the synthetic peptide was 1, 10 or 100 mg/kg·day.

[2] = system: mouse osteoblast-like cell line MC3T3-E1 Subclone-4; assay: Osteoblast growth-promoting activity (cell counting method); assay type: cell-based; settings: synthetic peptides at 2.5, 5 or 10 μg/mL; 72 hours; relative to PBS (−) group taken as 100; FIGS. 9 to 12
Description: A mouse osteoblast-like cell line MC3T3-E1 Subclone-4 (ATCC No. CRL-2593) was cultured in α-MEM medium supplemented with 10% FBS at 5% CO2 and 95% air at 37° C. until confluent. The cells were collected by trypsinization. The collected cells were suspended at 1×10^4 cells/mL in fresh α-MEM medium. One mL of the cell suspension was seeded in each well of a 24-well plate, and precultured at 5% CO2 and 95% air at 37° C. On the next day, the medium was replaced with medium prepared by well mixing 50 μL of a sample or PBS (−) with 950 μL of fresh α-MEM medium supplemented with CaCl2 to a Ca concentration of 500 μg/mL. The cells were further cultured for 72 hours. The growth activity of osteoblasts was measured by the cell counting method. The activity of the sample for promoting the growth of osteoblasts was expressed in terms of the relative value, with the growth rate in the PBS (−) group taken as 100. Osteoblast growth-promoting activity was determined for the synthetic peptides in the same manner as in Example 1. The synthetic peptides were added at 2.5, 5 or 10 μg/mL per well. As a control, PBS (−) was added. The osteoblast growth-promoting activity was expressed in terms of the relative value, with the growth rate in the PBS (−) group taken as 100.

[3] = system: mouse-derived cell line ATDC5; assay: Hyaluronic acid production-promoting activity (ELISA of culture supernatant); assay type: cell-based; settings: 10 nmol/mL; supernatant after 48 hours of culture; FIG. 15
Description: This study was performed using the mouse-derived cell line ATDC5 as used in Example 4. ATDC5 cells in the logarithmic growth phase were seeded at 2×10^4 cells/mL per well in a 24-well plate containing DMEM/F-12 (1:1) medium supplemented with 5% FCS (fetal calf serum), 10 μg/mL transferrin and 3×10^−8 M sodium selenite. The cells were precultured at 5% CO2 and 95% air at 37° C. On the next day, the medium in each well was removed, and medium containing the synthetic peptide (No. 1 or No. 6) at 10 nmol/mL was added. The cells were cultured for […]. As a control, medium without a synthetic peptide was added. After 48 hours of culture, the culture supernatants were collected, and their hyaluronic acid concentrations were measured using QnE Hyaluronic Acid ELISA Assay (Biotech Trading Partners). The concentrations of hyaluronic acid in the culture supernatants of the synthetic peptide addition group were calculated by subtracting the absorbance of the background from the absorbance of the supernatants, and fitting the resulting values to the reference curve prepared using the standard.

[4] = system: mouse-derived chondrogenic cell line ATDC5; assay: Chondrocyte growth-promoting activity (Cell Counting Kit-8); assay type: cell-based; settings: 10 nmol/mL; 72 hours; relative to control taken as 100%; FIG. 14
Description: This study was performed using mouse-derived chondrogenic cell line ATDC5 (RIKEN BANK, RBC0565). ATDC5 cells in the logarithmic growth phase were suspended at 3×10^4 cells/mL in Eagle MEM medium supplemented with 5% FCS (fetal calf serum), and 100 μL of the cell suspension was seeded in each well of a 96-well plate and precultured at 5% CO2 and 95% air at 37° C. On the next day, the medium in each well was removed, and medium containing the synthetic peptide (No. 1 or No. 6) at 10 nmol/mL was added. The cells were cultured for 72 hours. As a control, medium without a synthetic peptide was added. The reaction solution ([…]) of Cell Counting Kit-8 (Dojindo Laboratories) was added to each well. The plate was incubated for 3 hours, and the absorbance at 450 nm was measured with a microplate reader. The activity of the synthetic peptides for promoting the growth of chondrocytes was expressed in terms of the relative value, with the absorbance (growth rate) in the control group taken as 100%.

[5] = system: Crlj:W1 male rats at four weeks old; assay: Bone formation in growth cartilage and secondary cancellous bone, 21-day oral administration; assay type: in vivo, rat; settings: No. 1 oral 100 mg/kg·day, hGH 500 μg/kg·day subcutaneous; 21 days; FIG. 21
Description: One of the synthetic peptides (No. 1) or water for injection (control) was administered to Crlj:W1 male rats at four weeks old by oral gavage using a gastric tube once a day for 21 days (n=3 in each group). The dose of the synthetic peptide was 100 mg/kg·day. As a positive control, human growth hormone (hGH) (Norditropin, Standard Commodity Classification No. of Japan: 872412) was subcutaneously administered at 500 μg/kg·day once a day for 21 days. As fluorescent labels for the site of bone formation, tetracycline (20 mg/kg) was subcutaneously administered on day 18 after the administration of the peptide or control, and then calcein (10 mg/kg) was subcutaneously administered on day 20 after the administration of the peptide or control. After the administration of the test sample on day 21, the rats were kept under fasting conditions. Twenty-four hours later, the rats were euthanized by bloodletting under anesthesia, and the tibiae were harvested (see FIG. 20). Non-decalcified specimens of the proximal tibiae were prepared and photographed under a fluorescent microscope (BX-53, OLYMPUS). The bone morphology was measured using a morphometry system (Histometry RT digitizer, System Supply Co., Ltd.) and an analysis software (CSS-840 cancellous bone morphometry version, System Supply Co., Ltd.). The longitudinal growth rate (Lo.G.R.) in the epiphyseal cartilage, which is the increase in the height per day, was determined by measuring the distance between the tetracycline label and the calcein label, and dividing the distance by the administration interval between the fluorescent labels (two days).

[6] = system: Crlj:W1 male rats at four weeks old; assay: Mineral apposition rate in secondary cancellous bone, 7-day oral administration; assay type: in vivo, rat; settings: No. 1 oral 1, 10 or 100 mg/kg-day, hGH 500 μg/kg·day subcutaneous; seven days; FIG. 26
Description: One of the synthetic peptides (No. 1) or water for injection (control) was administered to Crlj:W1 male rats at four weeks old by oral gavage using a gastric tube once a day for seven days (n=10 in each group). The dose of the synthetic peptide was 1, 10 or 100 mg/kg-day. As a positive control, human growth hormone (hGH) (Norditropin, Standard Commodity Classification No. of Japan: 872412) was subcutaneously administered at 500 μg/kg·day once a day for seven days. As fluorescent labels for the site of bone formation, tetracycline (20 mg/kg) was subcutaneously administered on day 4 after the administration of the peptide or control, and then calcein (10 mg/kg) was subcutaneously administered on day 6 after the administration of the peptide or control. After the administration of the test sample on day 7, the rats were kept under fasting conditions. Twenty-four hours later, the rats were euthanized by bloodletting under anesthesia, and the tibiae were harvested. Non-decalcified specimens of the proximal tibiae were prepared and photographed under a fluorescent microscope (BX-53, OLYMPUS). The bone morphology was measured using a morphometry system (Histometry RT digitizer, System Supply Co., Ltd.) and an analysis software (CSS-840 cancellous bone morphometry version, System Supply Co., Ltd.). The mineral apposition rate (MAR), per day, in the secondary cancellous bone was determined by measuring the distance between the tetracycline label and the calcein label in the secondary cancellous bone, and dividing the distance by the administration interval between the fluorescent labels (two days). […] The increase in the mineral apposition rate in the secondary cancellous bone in the No. 1 administration group would have resulted from the increase in the number of osteoblasts.

[7] = system: Crlj:W1 male rats at four weeks old; assay: Bone formation in growth cartilage and primary cancellous bone, 7-day oral administration; assay type: in vivo, rat; settings: No. 1 oral 100 mg/kg-day, hGH 500 μg/kg-day subcutaneous, seven days
Description: One of the synthetic peptides (No. 1) or water for injection (control) was administered to Crlj:W1 male rats at four weeks old by oral gavage using a gastric tube once a day for seven days (n=3 in each group). The dose of the synthetic peptide (No. 1) was 100 mg/kg-day. As a positive control, human growth hormone (hGH) (Norditropin, Standard Commodity Classification No. of Japan: 872412) was subcutaneously administered at 500 μg/kg-day once a day for seven days. As fluorescent labels for the site of bone formation, tetracycline (20 mg/kg) was subcutaneously administered on day 4 after the administration of the peptide or control, and then calcein (10 mg/kg) was subcutaneously administered on day 6 after the administration of the peptide or control. After the administration of the test sample on day 7, the rats were kept under fasting conditions. Twenty-four hours later, the blood was collected. The rats were then euthanized by bloodletting under anesthesia, and the tibiae were harvested (see FIG. 16). Non-decalcified specimens of the proximal tibiae were prepared and photographed under a fluorescent microscope (BX-53, OLYMPUS). The bone morphology was measured using a morphometry system (Histometry RT digitizer, System Supply Co., Ltd.) and an analysis software (CSS-840 cancellous bone morphometry version, System Supply Co., Ltd.). The longitudinal growth rate (Lo.G.R.) in the growth cartilage, which is the increase in the height per day, was determined by measuring the distance between the tetracycline label and the calcein label, and dividing the distance by the administration interval between the fluorescent labels (two days).
The increase in the level of IGF-1, which is related to growth of the bones and muscles in a growth phase, may contribute to the bone growth-promoting effect.

## NCCCC(O)(P(=O)(O)O)P(=O)(O)O [alendronate, alendronate sodium hydrate, reference compound]
[1]
  cancellous bone volume in the proximal tibial metaphysis: significantly increased

## DESSPYE [No. 4]
[2]
  osteoblast growth-promoting activity: promoted the growth of osteoblasts in a concentration-dependent manner

## EDESSPYE [No. 5]
[2]
  osteoblast growth-promoting activity: promoted the growth of osteoblasts in a concentration-dependent manner

## Pro-Glu-Ser-Glu-Glu (PESEE) [No. 3]
[2]
  osteoblast growth-promoting activity: promoted the growth of osteoblasts in a concentration-dependent manner

## VNPESEE [No. 2]
[2]
  osteoblast growth-promoting activity: promoted the growth of osteoblasts in a concentration-dependent manner

## VNPESEEEDESSPYE [No. 6]
[2]
  osteoblast growth-promoting activity: promoted the growth of osteoblasts in a concentration-dependent manner
[3]
  hyaluronic acid production-promoting activity (hyaluronic acid concentration in culture supernatant): showed hyaluronic acid production-promoting effect
[4]
  chondrocyte growth-promoting activity: showed chondrocyte growth-promoting effect

## hGH: human growth hormone (hGH) (Norditropin), positive control, subcutaneously administered [reference compound]
[5]
  longitudinal growth rate (Lo.G.R.) in the epiphyseal cartilage, vs control group: significant promotion of bone growth as compared with the control group
[6]
  mineral apposition rate (MAR) in the secondary cancellous bone, vs control group: significant increase in the mineral apposition rate
[7]; ELISA, FIG. 19
  serum level of insulin-like growth factor (IGF-1): higher than that in the control group
[7]; FIG. 17
  longitudinal growth rate (Lo.G.R.) in the growth cartilage, vs control group: significant promotion of bone growth as compared with the control group
